This note sets out measurements from patent US6399543B1, “Low foam N,N′-dialkyltartaramide wetting agents” (Air Products and Chemicals, Inc., priority 2001, dated 2002).

SMILES strings stand for the structures.

What all share (assay type): physicochemical
Data set [1] can be described thus: Concentration of surfactant in filtered saturated solution in distilled water. The following applies: shaken ~24 hours. On the procedure: (§1) Saturated solutions of the materials of Examples 1-9 in distilled water were prepared. After shaking the solutions for ˜24 hours, the undissolved material was removed via filtration. Equilibrium surface tension (EST) data were obtained using the Wilhelmy plate method. Equilibrium surface tension values between 65-72 dyne/cm are considered to be indicative of a lack of surface activity (i.e., a lack of surfactancy).

Data set [2] is described as follows: Equilibrium surface tension (EST), Wilhelmy plate method, saturated aqueous solutions. The following applies: for Limiting EST: saturated solution in distilled water, undissolved material filtered off, Wilhelmy plate. On the procedure:
where R^1 and R^2 are C4 to C8 alkyl groups, and at least one of R^1 and R^2 is a branched C4 to C8 alkyl group. […] The Wilhelmy plate method of measuring surface tension is described in L. Wilhelmy's article in Ann. Phys. 1863, 119, 177, which is incorporated by reference.
as §1
The limiting surface tensions represent the lowest surface tensions in water which can be achieved for a given surfactant regardless of the amount of surfactant used and is used to evaluate the effectiveness of a surfactant. Lower surface tensions would allow for the elimination of defects upon application of a formulation onto low energy surfaces.

A short description of data set [3]: Foaming properties of aqueous solutions, procedure based upon ASTM D 1173-53. The following applies: filtrate of aqueous mixture of the tartaramide; for Initial Foam: foam height at completion of addition. On the procedure:
The foaming properties of aqueous solutions of N,N′-di-iso-pentyl L-tartaramide (Ex 1), N,N′-di-2-ethylhexyl L-tartaramide (Ex 5) and two representative nonionic surfactants, a commercial nonylphenol 15 mole ethoxylate surfactant and a commercial C8 alkyl glucoside surfactant, were examined using a procedure based upon ASTM D 1173-53.
In this test, an aqueous mixture of the tartaramides was prepared, any undissolved solids were filtered off, and the filtrate was added from an elevated glass pipette to a glass receiver containing the same filtrate. Regarding the commercial materials, a 0.1 wt % solution of the surfactant was added from an elevated glass pipette to a glass receiver containing the same solution. The foam height was measured at the completion of the addition (“Initial Foam Height”) and the time required for the foam to dissipate at the air-liquid interface (“Time to 0 Foam”) was recorded. This test provides a comparison between the foaming characteristics of various surfactants. In general, in coatings, inks, adhesives, agricultural and electronics cleaning formulations, foam is undesirable because it complicates handling and can lead to coating and print defects, and to inefficient application of agricultural materials.

On to `CC(C)CCCC(C)NC(=O)C(O)C(O)C(=O)NC(C)CCCC(C)C` [Ex 3, N,N′-Di-1,5-dimethylhexyl L-tartaramide], for which the “Concentration of Surfactant in Solution” value in data set [1] is recorded as less than 0.1 wt. %. Further, in data set [2], the “Limiting EST” value was 38.0 dyne/cm and the “lowering the equilibrium surface tension of water (in words)” value (shortened to “lowering the equilibrium surface tension”) is “particularly effective”.

Regarding `CCCCNC(=O)[C@H](O)[C@@H](O)C(=O)NCCCC` [Ex 7, N,N′-Di-n-butyl L-tartaramide], the “Concentration of Surfactant in Solution” value in data set [1] was less than 1.0 wt. %. In addition, the “Limiting EST” value in data set [2] is on record as 65.0 dyne/cm.

On to `O=C(NC1CCCCC1)[C@H](O)[C@@H](O)C(=O)NC1CCCCC1` [Ex 9, N,N′-Di-cyclohexyl L-tartaramide], for which, in data set [1], the “Concentration of Surfactant in Solution” value is listed as less than 0.1 wt. %. For the same molecule, in data set [2], the “Limiting EST” value is 67.9 dyne/cm.

With `CCCCC(CC)CNC(=O)C(O)C(O)C(=O)NCC(CC)CCCC` [Ex 5, N,N′-Di-2-ethylhexyl L-tartaramide], in data set [3], the “Foam after 5 min” value was 0 cm, the “Time to zero foam” value is recorded as “˜3 sec” and the “Initial Foam” value is given as 1.5 cm. The “Concentration of Surfactant in Solution” value in data set [1] is on record as less than 0.1 wt. %. Besides, in data set [2], the “Limiting EST” value was determined as 41.4 dyne/cm and the “lowering the equilibrium surface tension” value was “particularly effective”.

As to `CCCCCC(C)NC(=O)C(O)C(O)C(=O)NC(C)CCCCC` [Ex 4, N,N′-Di-1-methylhexyl L-tartaramide], in data set [1], the “Concentration of Surfactant in Solution” value is on record as less than 0.1 wt. %. In data set [2], the “Limiting EST” value is 41.5 dyne/cm and the “lowering the equilibrium surface tension” value is recorded as “particularly effective”.

With `CCCCCCC(C)NC(=O)C(O)C(O)C(=O)NC(C)CCCCCC` [Ex 2, N,N′-Di-1-methylheptyl L-tartaramide], in data set [1], the “Concentration of Surfactant in Solution” value is reported as less than 0.1 wt. %. Further, in data set [2], the “Limiting EST” value stood at 39.5 dyne/cm and the “lowering the equilibrium surface tension” value is “particularly effective”.

For `CC(C)CCNC(=O)[C@H](O)[C@@H](O)C(=O)NCCC(C)C` [Ex 1, N,N′-Di-iso-pentyl L-tartaramide], in data set [3], the “Foam after 5 min” value is reported as 0 cm, the “Time to zero foam” value is on record as “≦5 sec” and the “Initial Foam” value was determined as 0.5 cm. Further, the “Concentration of Surfactant in Solution” value in data set [1] was less than 1.5 wt. %. For the same molecule, in data set [2], the “Limiting EST” value is reported as 48.0 dyne/cm.

On to `CCCNC(=O)[C@H](O)[C@@H](O)C(=O)NCCC` [Ex 6, N,N′-Di-n-propyl L-tartaramide], for which the “Concentration of Surfactant in Solution” value in data set [1] is recorded as less than 1.0 wt. %. Further, in data set [2], the “Limiting EST” value is on record as 67.7 dyne/cm.

For `CCCCCCNC(=O)[C@H](O)[C@@H](O)C(=O)NCCCCCC` [Ex 8, N,N′-Di-n-hexyl L-tartaramide], the “Concentration of Surfactant in Solution” value in data set [1] is listed as less than 0.1 wt. %. In addition, the “Limiting EST” value in data set [2] is 67.8 dyne/cm.
